Test results: patent US20200190210A1, “NEW TARGET FOR TREATING CANCER” (TONGJI UNIVERSITY SUZHOU INSTITUTE BIOMEDICAL RESEARCH …, priority 2017, published 2020)

Columns and labels:
[1] = tested on: MDAMB231-BoM-1833-TGL cells; experiment: Breast cancer metastasis mouse model (ventricular injection of tumor cells, in vivo imaging, survival); details: peptide injected from Day -1 every other day; for metastasis of breast cancer, peptide: mice, IgG negative control, FIGS. 11 and 12
Experimental: The day before the injection of tumor cells into mice was recorded as Day −1 of the experiment. On Day −1, the mice were fasted for 4 hours, injected with the desired concentration of FC17-7 antibody obtained in Example 1 or IgG (as a negative control), and given food after 2 hours. After the first injection, the mice were injected with antibodies every three days. On Day 0 of the experiment, MDAMB231-BoM-1833-TGL cells were blocked with antibodies according to the method of Example 4. After 6 hours, the cells were digested. The medium was removed, and the cells were washed with PBS once and resuspended in PBS to a concentration of 1×10^6 cells/ml. Then, mice were injected with 1×10^5 tumor cells/100 μl by ventricular injection to establish a mouse metastasis model. Every other week, the mice were subjected to in vivo imaging to record the fluorescence signal data. By establishing a breast cancer metastasis model, periodically administration of the monoclonal antibody FC17-7 prepared in Example 1 was performed in mice.
The day before the injection of tumor cells into mice was recorded as Day −1 of the experiment. On Day −1, the mice were fasted for 4 hours, and injected with the desired concentration of the extracellular loop 1 peptide of TM4SF1 prepared in Example 3 or IgG (as negative control), and given food after 2 hours. After the first injection of the peptide, the mice were injected with the peptide every other day. On Day 0 of the experiment, MDAMB231-BoM-1833-TGL cells were blocked with the peptide according to the method of Example 9. After 6 hours, the cells were digested. The medium was removed, and the cells were washed with PBS once, and resuspended in PBS to a concentration of 1×10^6 cells/ml. For the method of establishing a breast cancer metastasis mouse model, refer to the method in Example 7.

[2] = tested on: p-STAT3 (TM4SF1 associated non-classical DDR1 signaling pathway); experiment: Western Blotting of p-STAT3, TM4SF1 associated non-classical DDR1 signaling pathway, in cells overexpressing TM4SF1 and DDR1; format: cell-based, human; details: Collagen I 10 μg/ml, 12 hours, FIG. 10; for inhibition of P-STAT3 / downstream signal transduction (Western Blotting), peptide: cells overexpressing TM4SF1 and DDR1, PBS negative control
Experimental: The transfection method has been described in Example 4. 48 hours after transfection, the medium was removed, 2 ml of serum-free DMEM-HG medium containing a certain concentration of FC17-7 antibody obtained in Example 1 or IgG (as a negative control) was added. After incubating the culture dish at 37° C. for 5 minutes, Collagen I was added to the culture dish to a final concentration of 10 μg/ml and cultured for 12 hours. The cells were collected and lysed with IP-RIPA buffer in a refrigerator at 4° C. for 1 h. The lysate was sonicated twice (15 s 30% power), then centrifuged at 12,000 rpm for 30 min. The supernatant was sampled to determine the protein concentration, and the protein concentration of each sample was adjusted to be the same. The sample was subjected to SDS-PAGE electrophoresis, and the proteins were transferred to a membrane by conventional way in Western Blotting, and then stained with the antibody.
The transfection method has been described in Example 4. 48 hours after transfection, the medium was removed, 2 ml of serum-free DMEM-HG medium containing a certain concentration of the extracellular loop 1 peptide of TM4SF1 prepared in Example 3 or PBS (as a negative control) was added. After incubating the culture dish at 37° C. for 5 minutes, Collagen I was added to the culture dish to a final concentration of 10 μg/ml. The cells were cultured for 12 hours and then collected. The cells were lysed with IP-RIPA buffer in a refrigerator at 4° C. for 1 h. The lysate was sonicated twice (15 s 30% power), and then centrifuged at 12,000 rpm for 30 min. The supernatant was sampled to determine the protein concentration, and the protein concentration of each sample was adjusted to be the same. The sample was subjected to SDS-PAGE electrophoresis, and the proteins were transferred to a membrane by a conventional way used in Western Blotting, and then stained with antibody.

[3] = molecular target: T1, interaction of TM4SF1 and DDR1 (Homo sapiens, UniProt P30408); experiment: Co-immunoprecipitation / Western Blotting of TM4SF1 and DDR1 co-overexpressed in 293FT cells, Collagen I stimulated; format: cell-based; details: 293FT cells co-overexpressing TM4SF1 and DDR1, peptide overexpressed in 293FT cells and purified, Collagen I 10 μg/ml, 6 hours, FIG. 9
T1 construct: expressed in transfected cells; host or cells: 293FT cells
T1 sequence (P30408 1-202): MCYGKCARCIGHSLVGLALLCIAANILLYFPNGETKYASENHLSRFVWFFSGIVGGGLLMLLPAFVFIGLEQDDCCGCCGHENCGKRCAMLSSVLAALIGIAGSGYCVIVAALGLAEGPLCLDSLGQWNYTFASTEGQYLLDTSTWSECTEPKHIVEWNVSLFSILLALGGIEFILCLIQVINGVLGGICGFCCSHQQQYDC
Experimental: 293FT cells were cultured in DMEM-HG medium and digested with trypsin. The cells were counted and seeded at a density of 1×10^6 cells per dish in 6 cm (diameter) culture dish. The next day, 700 μl of serum-free DMEM-HG medium was respectively added to two centrifuge tubes. 10 μl of P-Pei transfection reagent was added to the first centrifuge tube. 1 μg PQCXIP-hTM4SF1 plasmid and 1 μg PQCXIN-hDDR1 plasmid were added to the second centrifuge tube and mixed well. The resultant from the second centrifuge tube was added to the first centrifuge tube and incubated for 20 min to obtain the transfection mixture. The culture medium of the 293FT cells seeded the day before was removed, and the transfection mixture above was added to the culture dish and incubated for 6 hours. Fresh medium was added to continue the culture. 48 hours after the transfection, the medium was removed, 2 ml of serum-free DMEM-HG medium containing a certain concentration of FC17-7 antibody obtained in Example 1 or IgG (as a negative control) was added. After incubating the culture dish at 37° C. for 5 minutes, Collagen I was added to the culture dish to a final concentration of 10 μg/ml. The cells were cultured for 6 hours and then collected. […] After the elution, the mixture was centrifuged at 3,000 rpm for 2 min to collect the supernatant, and the protein expression was detected by Western Blotting. […]

[4] = listed as small extracellular loop 1 peptide of TM4SF1

Sequence: FPNGETKYASENHLSRC [extracellular loop 1 peptide of TM4SF1]
- metastasis of breast cancer, peptide [1]: significantly inhibit the metastasis of breast cancer
- metastasis of breast cancer, peptide [1, 4]: significantly inhibits metastasis of breast cancer
- survival time of the mice, peptide ([1]; FIG. 13): prolong the survival time of the mice
- survival time of the mice, peptide ([1]; FIG. 13, listed as small extracellular loop 1 peptide of TM4SF1): prolongs the survival mice
- inhibition of P-STAT3 / downstream signal transduction (Western Blotting), peptide [2]: began to inhibit P-STAT3
- inhibition of P-STAT3 / downstream signal transduction (Western Blotting), peptide [2, 4]: inhibits downstream signal transduction
- concentration at which the peptide began to inhibit P-STAT3 ([2]; different concentrations of peptide, dose-dependent): 9 µg/mL
- disruption of the interaction between TM4SF1 and DDR1 (co-immunoprecipitation), peptide [3]: significantly disrupt the interaction between TM4SF1 and DDR1
- disruption of the interaction between TM4SF1 and DDR1 (co-immunoprecipitation), peptide [3, 4]: disrupts the interaction between TM4SF1 and DDR1
